In patent publication US7160887B1, “Aromatic amine derivatives, their production and use” (Takeda Pharmaceutical Company Limited, priority 1998, dated 2007) one finds melting point data, which are given here for one compound.

The structures appear in SMILES notation. Counter-ions that a name gives are not always drawn.

The term melting point denotes the temperature of the solid-liquid transition. `NCCc1cccc(Oc2cc(Cl)ccc2N(Cc2ccc(-c3ccccc3)cc2)C(=O)CCC(=O)NCc2ccccc2F)c1` (as salt: hydrochloride) [Example 14, N-[2-[3-(2-aminoethyl)phenoxy]-4-chlorophenyl]-N-(4-biphenylmethyl)-N′-(2-fluorobenzyl)succinamide hydrochloride]: the melting point lay in the range of 123 to 125 °C.
